The text below walks through data of US20250179057A1, “MEK IMMUNE ONCOLOGY INHIBITORS AND THERAPEUTIC USES THEREOF” (Immuneering Corporation, priority 2022, published 2025).

Each structure is given as a SMILES string.

A short description of data set [1]: in vitro. Conditions: human; for Papp A→B at 2 h, 10 μM: Caco-2, Mean Papp A-B (10^-6 cm/s); for Papp B→A at 2 h, 10 μM: Caco-2, Mean Papp B-A (10^-6 cm/s).
For data set [2] the following is noted: PubChem Compound Summary; cited from earlier work.

For the compound `Cn1cnc2c(F)c(Nc3ccc(Br)cc3Cl)c(C(=O)NOCCO)cc21` [Reference-1, Selumetinib], the efflux ratio (in general, a quotient of directional permeabilities that is used to spot active efflux) at 2 h, 10 μM in data set [1] (Caco-2, Mean (B-A/A-B) (Efflux Ratio)) worked out at 3.19. For the same compound, in data set [1], the Papp A→B (as a rule, how fast a substance crosses the layer from the apical side) at 2 h, 10 μM stood at 8.83 ×10⁻⁶ cm/s and the Papp B→A (in general, the apparent permeability from the basolateral to the apical side of a cell layer) at 2 h, 10 μM was found to be 28.2 ×10⁻⁶ cm/s. Further, in data set [2], the “human plasma drug half-life” value was at least 6.2 h.
In data set [1], `CNS(=O)(=O)Nc1nccc(Cc2c(C)c3ccc(Oc4ncccn4)cc3oc2=O)c1F` [Reference-2, reference compound] displayed a Papp A→B at 2 h, 10 μM of 18.1 ×10⁻⁶ cm/s and a Papp B→A at 2 h, 10 μM of 20.9 ×10⁻⁶ cm/s.
